# Molecular target: T1, Human TRPV3 (Homo sapiens, UniProt Q8NET8)
# T1 construct: expressed in transfected cells; host or cells: CHO cells (selected with G-418)
# T1 sequence (Q8NET8 1-790): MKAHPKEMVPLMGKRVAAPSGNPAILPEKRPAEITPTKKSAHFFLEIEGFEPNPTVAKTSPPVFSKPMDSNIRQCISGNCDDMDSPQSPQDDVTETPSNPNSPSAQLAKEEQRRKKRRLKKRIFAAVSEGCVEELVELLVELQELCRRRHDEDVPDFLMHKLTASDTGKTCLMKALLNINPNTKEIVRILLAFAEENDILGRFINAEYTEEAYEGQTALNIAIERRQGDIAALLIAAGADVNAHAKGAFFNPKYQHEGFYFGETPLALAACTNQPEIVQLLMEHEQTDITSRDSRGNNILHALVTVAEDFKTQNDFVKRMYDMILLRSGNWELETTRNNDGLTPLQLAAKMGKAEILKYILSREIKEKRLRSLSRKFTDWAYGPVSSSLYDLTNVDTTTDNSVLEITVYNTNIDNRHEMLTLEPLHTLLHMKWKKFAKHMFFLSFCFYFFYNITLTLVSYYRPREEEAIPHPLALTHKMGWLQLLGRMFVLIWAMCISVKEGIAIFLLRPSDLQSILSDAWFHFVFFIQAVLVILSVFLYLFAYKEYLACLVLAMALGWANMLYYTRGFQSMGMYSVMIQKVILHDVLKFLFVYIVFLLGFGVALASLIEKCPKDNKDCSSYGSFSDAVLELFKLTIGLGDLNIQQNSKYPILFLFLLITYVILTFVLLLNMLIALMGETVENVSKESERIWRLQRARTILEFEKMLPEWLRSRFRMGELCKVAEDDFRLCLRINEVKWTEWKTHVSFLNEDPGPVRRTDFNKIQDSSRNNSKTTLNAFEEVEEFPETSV
# Experiment: 45Calcium uptake assay: inhibition of 2-APB induced cellular uptake of radioactive calcium
# Assay type: cell-based
# Settings: human TRPV3 expressing CHO cells, 2-APB 500 μM; for inhibition at 1 µM: 1 μM test compound, read-out: Percentage Inhibition (1 μM); for inhibition at 10 µM: 10 μM test compound, read-out: Percentage Inhibition (10 μM); for IC50: class symbol
# How it was run: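 CHO cells expressing human TRPV3 were preincubated with compound for 10 min (0.5% DMSO final), then given 500 μM 2-APB plus 5 μCi/ml 45Ca2+ for 4 min. Lysate radioactivity was counted by scintillation; responses as % of maximal without antagonist, with IC50 by nonlinear regression.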
smiles,measurement,value
"COc1cccc(/C=C/c2nc3ccccc3n2-c2ccc(C(F)(F)F)cn2)c1OCc1ccccc1 [Example 28, 2-[(E)-2-(2-Benzyloxy-3-methoxyphenyl)vinyl]-1-[5-(trifluoromethyl)pyridin-2-yl]-1H-benzimidazole]",inhibition at 1 µM,77.1%
same,inhibition at 10 µM,92.6%
same,IC50,100 to 500 nM
"COc1ccc2c(c1)nc(/C=C/c1cccc(OC)c1OC1CCCC1)n2-c1ccc(C#N)cn1 [Example 56, 6-{2-[(E)-2-(2-[Cyclopentyloxy]-3-methoxyphenyl)vinyl]-5-methoxy-1H-benzimidazol-1-yl}nicotinonitrile]",inhibition at 1 µM,96.8%
same,inhibition at 10 µM,98.9%
same,IC50,100 to 500 nM
"CCCCCOc1c(/C=C/c2nc3cc(Cl)cnc3n2-c2ccc(C#N)cn2)cccc1OC(F)F [Example 101, 6-(6-Chloro-2-{(E)-2-[3-(difluoromethoxy)-2-pentyloxyphenyl]vinyl}-3H-imidazo[4,5-b]pyridin-3-yl)nicotinonitrile]",inhibition at 1 µM,30.3%
same,inhibition at 10 µM,85.2%
"COc1cccc(/C=C/c2nc3ccccc3n2-c2ccc(C)cc2)c1OCC1CC1 [Example 31, 2-[(E)-2-(2-Cyclopropylmethoxy-3-methoxyphenyl)vinyl]-1-(4-methylphenyl)-1H-benzimidazole]",inhibition at 1 µM,47.3%
same,inhibition at 10 µM,86.6%
"CCOC(=O)c1ccc(-n2c(/C=C/c3cccc(OC)c3OC3CCCC3)nc3cc(F)c(F)cc32)nn1 [Example 73, Ethyl 6-{2-[(E)-2-(2-cyclopentyloxy-3-methoxyphenyl)vinyl]-5,6-difluoro-1H-benzimidazol-1-yl}pyridazine-3-carboxylate]",inhibition at 1 µM,53.5%
same,inhibition at 10 µM,75.5%
"CCOc1c(/C=C/c2nc3cc(F)c(F)cc3n2-c2ccc(C#N)cn2)cccc1OC [Example 63, 6-{2-[(E)-2-(2-Ethoxy-3-methoxyphenyl)vinyl]-5,6-difluoro-1H-benzimidazol-1-yl}nicotinonitrile]",inhibition at 1 µM,80.8%
same,inhibition at 10 µM,97.7%
same,IC50,100 to 500 nM
"CCCCOc1c(/C=C/c2nc3cc(F)c(F)cc3n2-c2ccc(C#N)cn2)cccc1OC [Example 64, 6-{2-[(E)-2-(2-Butoxy-3-methoxyphenyl)vinyl]-5,6-difluoro-1H-benzimidazol-1-yl}-nicotinonitrile]",inhibition at 1 µM,96.4%
same,inhibition at 10 µM,99.9%
same,IC50,100 to 500 nM
"COc1cccc(/C=C/c2nc3ccc(Cl)cc3n2-c2ccc(C#N)cn2)c1OCC(C)C [Example 52, 6-(6-Chloro-2-{(E)-2-[3-methoxy-2-(2-methylpropoxy)phenyl]ethenyl}-1H-benzimidazol-1-yl)pyridine-3-carbonitrile]",inhibition at 1 µM,97.7%
same,inhibition at 10 µM,98.4%
same,IC50,50 to 100 nM
"COc1cccc(/C=C/c2nc3ccccc3n2-c2ccc(C(F)(F)F)cn2)c1OC(C)C [Example 25, 2-[(E)-2-(2-Isopropoxy-3-methoxyphenyl)vinyl]-1-(5-trifluoromethylpyridin-2-yl)-1H-benzimidazole]",inhibition at 1 µM,86.7%
same,inhibition at 10 µM,97.5%
same,IC50,100 to 500 nM
"COc1cccc(/C=C/c2nc3ccccc3n2-c2ncc(C#N)s2)c1OC1CCCC1 [Example 48, 2-{2-[(E)-2-(2-[Cyclopentyloxy]-3-methoxyphenyl)vinyl]-1H-benzimidazol-1-yl}-1,3-thiazole-5-carbonitrile]",inhibition at 1 µM,43.5%
same,inhibition at 10 µM,75.8%
"COc1cccc(/C=C/c2nc3ccccc3n2-c2cccs2)c1OCC1CC1 [Example 45, 2-[(E)-2-(2-Cylopropymethoxy-3-methoxyphenyl)]-1-(2-thienyl)-1H-benzimidazole]",inhibition at 1 µM,43.4%
same,inhibition at 10 µM,83.8%
"CCOC(=O)c1ccc(-n2c(/C=C/c3cccc(OC)c3OC3CCCC3)nc3ccccc32)nn1 [Example 19, Ethyl 6-{2-[(E)-2-(2-[Cyclopentyloxy]-3-methoxyphenyl)vinyl]-1H-benzimidazol-1-yl}pyridazine-3-carboxylate]",inhibition at 1 µM,82.9%
same,inhibition at 10 µM,95.9%
same,IC50,100 to 500 nM
"CCCCCOc1c(/C=C/c2nc3cc(F)c(F)cc3n2-c2ccc(C#N)cn2)cccc1OC [Example 65, 6-{5,6-Difluoro-2-[(E)-2-(2-pentoxy-3-methoxyphenyl)vinyl]-1H-benzimidazol-1-yl}nicotinonitrile]",inhibition at 1 µM,94.9%
same,inhibition at 10 µM,97.4%
same,IC50,50 to 100 nM
COc1cccc(/C=C/c2nc3ccccc3n2-c2ncccn2)c1OC1CCCC1 [Example 21],inhibition at 1 µM,13%
same,inhibition at 10 µM,81.9%
"CCCCOc1c(/C=C/c2nc3ccccc3n2-c2ccc(C(F)(F)F)cn2)cccc1OC [Example 85, 2-[(E)-2-(2-butoxy-3-methoxyphenyl)vinyl]-1-(5-trifluoromethylpyridin-2-yl)-1H-benzimidazole]",inhibition at 1 µM,71.1%
same,inhibition at 10 µM,90.2%
same,IC50,100 to 500 nM
"COc1cccc(/C=C/c2nc3cc(F)c(F)cc3n2-c2ccc(C#N)cn2)c1OCC(C)C [Example 66, 6-{5,6-Difluoro-2-[(E)-2-(2-isobutoxy-3-methoxyphenyl)vinyl]-1H-benzimidazol-1-yl}nicotinonitrile]",inhibition at 1 µM,98.6%
same,inhibition at 10 µM,99.5%
same,IC50,100 to 500 nM
"N#Cc1ccc(-n2c(/C=C/c3cccc(OC(F)F)c3OCC3CCC3)nc3cccnc32)nc1 [Example 97, 6-(2-{(E)-2-[2-(Cyclobutylmethoxy)-3-difluoromethoxyphenyl]vinyl}-3H-imidazo[4,5-b]pyridin-3-yl)nicotinonitrile]",inhibition at 1 µM,96%
same,inhibition at 10 µM,99.2%
same,IC50,50 to 100 nM
"CCC(CC)Oc1c(/C=C/c2nc3ccccc3n2-c2ncc(Br)cn2)cccc1OC [Example 22, 1-(5-Bromopyrimidin-2-yl)-2-{(E)-2-[2-(1-ethylpropoxy)-3-methoxyphenyl]vinyl}-1H-benzimidazole]",inhibition at 1 µM,70.6%
same,inhibition at 10 µM,89.2%
same,IC50,100 to 500 nM
"CCC(CC)Oc1c(/C=C/c2nc3ccccc3n2-c2ccc(C#N)cn2)cccc1OC [Example 10, 6-{2-[(E)-2-(2-(1-Ethylpropoxy)-3-methoxyphenyl)vinyl]-1H-benzimidazol-1-yl}nicotinonitrile]",inhibition at 1 µM,96.6%
same,inhibition at 10 µM,99.1%
same,IC50,100 to 500 nM
"COc1cccc(/C=C/c2nc3ccccc3n2-c2ccc(C(F)(F)F)cn2)c1OC1CCCC1 [Example 27, 2-[(E)-2-(2-Cyclopentyloxy-3-methoxyphenyl)vinyl]-1-[5-(trifluoromethyl)pyridin-2-yl]-1H-benzimidazole]",inhibition at 1 µM,41.8%
same,inhibition at 10 µM,94.7%
"COc1cccc(/C=C/c2nc3ccccc3n2-c2ccccn2)c1OC1CCCC1 [Example 2, 2-[(E)-2-(2-Cyclopentyloxy-3-methoxyphenyl)vinyl]-1-pyridin-2-yl-1H-benzimidazole]",inhibition at 1 µM,3.64%
same,inhibition at 10 µM,85%
"FC(F)Oc1cccc(/C=C/c2nc3cccnc3n2-c2ccc(OC(F)(F)F)cc2)c1OCC1CCC1 [Example 100, 2-{(E)-2-[2-Cylobutylmethoxy-3-(difluoromethoxy)phenyl]vinyl}-3-[4-(trifluoromethoxy)phenyl]-3H-imidazo[4,5-b]pyridine]",inhibition at 1 µM,66.3%
same,inhibition at 10 µM,94.9%
"COc1cccc(/C=C/c2nc3ccccc3n2Cc2ccc(C#N)cc2)c1OCc1ccccc1F [Example 44, 4-({2-[(E)-2-(2-{2-Fluorobenzyloxy}-3-methoxyphenyl)vinyl]-1H-benzimidazol-1-yl}methyl)benzonitrile]",inhibition at 1 µM,60%
same,inhibition at 10 µM,87.1%
"CCCCOc1c(/C=C/c2nc3cccnc3n2-c2ccc(C#N)cn2)cccc1OC [Example 86, 6-{2-[(E)-2-(2-Butoxy-3-methoxyphenyl)vinyl]-3H-imidazo[4,5-b]pyridin-3-yl}nicotinonitrile]",inhibition at 1 µM,92.6%
same,inhibition at 10 µM,95.2%
same,IC50,100 to 500 nM
"COc1cccc(/C=C/c2nc3ccccc3n2-c2ccc(C(F)(F)F)cc2)c1OC1CCCC1 [Example 35, 2-[(E)-2-(2-Cyclopentyloxy-3-methoxyphenyl)vinyl]-1-[4-(trifluoromethyl)phenyl]-1H-benzimidazole]",inhibition at 1 µM,54.3%
same,inhibition at 10 µM,77.8%
"N#Cc1ccc(-n2c(/C=C/c3cccc(OC(F)F)c3OC3CCCC3)nc3cccnc32)nc1 [Example 98, 6-(2-{(E)-2-[2-(Cyclopentyloxy)-3-difluoromethoxyphenyl]vinyl}-3H-imidazo[4,5-b]pyridin-3-yl)nicotinonitrile]",inhibition at 1 µM,95.9%
same,inhibition at 10 µM,100%
same,IC50,100 to 500 nM

# Reference: patent US8344010B2, “Fused imidazole derivatives as TRPV3 antagonist” (Glenmark Pharmaceuticals S.A., priority 2008, dated 2013)
